Results as given in patent publication US20130231346A1, “METHODS OF TREATING CANCER” (GLAXOSMITHKLINE INTELLECTUAL PROPERTY (NO.2) LIMITED, priority 2010, published 2013).

Key:
[1] = tested on: RAS-mutant NSCLC cell lines; assay: Induction of apoptosis (caspase 3/7 activation) in panel of RAS-mutant NSCLC cell lines; assay type: cell-based; details: for Response Rate (sensitivity/total lines tested), Cell Apoptosis (capsase 3/7): Ras mut NSCLC cell lines, caspase 3/7 activation, 24 hours of treatment
Experimental: (§1) A panel of 24 non-small cell lung carcinoma (NSCLC) cell lines harboring RAS mutations was analyzed for genomic alterations, gene expression profiling and protein phosphorylation in MAPK and PI3K pathways. Inhibition of cell growth and induction of apoptosis were determined by CellTiter-Glo® and caspase 3/7 activation assays after 72 and 24 hours of treatment, respectively.

[2] = tested on: RAS-mutant NSCLC cell lines; assay: Inhibition of cell growth (CellTiter-Glo) in panel of RAS-mutant NSCLC cell lines; details: for Single agent activity (in words): agent alone, cell growth inhibition and apoptosis; for Response Rate (sensitivity/total lines tested), Cell growth inhibition: Ras mut NSCLC cell lines, CellTiter-Glo, 72 hours of treatment
Experimental: Cells are plated in 384-well plates at 500 cells/well in culture media appropriate for each cell type, supplemented with 10% FBS and 1% penicillin/streptomycin, and incubated overnight at 37° C., 5% CO2. Cells are treated in a grid manner with dilution of Compound A^2 (20 dilutions, including no compound, of 2-fold dilutions starting from 1-20 μM depending of compound) from left to right on 384-well plate and also treated with Compound B^2 (20 dilutions, including no compound, of 2-fold dilutions starting from 1-20 μM depending of compound) from top to bottom on 384-well plate and incubated as above for a further 72 hours. In some instances compounds are added in a staggered manner and incubation time can be extended up to 7 days. Cell growth is measured using CellTiter-Glo® reagent according to the manufacturer's protocol and signals are read on a PerkinElmer EnVision™ reader set for luminescence mode with a 0.5-second read.
Results are expressed as a percentage of the t=0 value and plotted against compound(s) concentration. The t=0 value is normalized to 100% and represents the number of cells present at the time of compound addition. The cellular response is determined for each compound and/or compound combination using a 4- or 6-parameter curve fit of cell viability against concentration using the IDBS XLfit plug-in for Microsoft Excel software and determining the concentration required for 50% inhibition of cell growth (gIC50). Background correction is made by subtraction of values from wells containing no cells.
as §1

Compound	Response Rate (sensitivity/total lines tested), Cell Apoptosis (capsase 3/7) [1]	Single agent activity (in words) ([2]; RAS-mutant NSCLC lines)	Response Rate (sensitivity/total lines tested), Cell growth inhibition [2]	Apoptosis (in words) ([1]; RAS-mutant NSCLC lines, single agent)	Cell growth inhibition (in words) ([2]; RAS-mutant NSCLC lines)
C#Cc1cccc(Nc2ncnc3cc(OCCOC)c(OCCOC)cc23)c1 [Erlotinib]	0% (0/24)	little or no activity	0% (0/24)	–	–
Cn1ncc(Cl)c1-c1cc(C(=O)N[C@H](CN)Cc2cccc(F)c2)sc1Cl [AKT inhibitor, N-{(1S)-2-amino-1-[(3-fluorophenyl)methyl]ethyl}-5-chloro-4-(4-chloro-1-methyl-1H-pyrazol-5-yl)-2-thiophenecarboxamide]	0% (0/9)	little or no activity	6% (1/18)	–	–
Cc1nc(Nc2ncc(C(=O)Nc3c(C)cccc3Cl)s2)cc(N2CCN(CCO)CC2)n1 [Dasatinib]	0% (0/10)	–	20% (2/10)	–	–
Nc1nc2[nH]cc(CCc3ccc(C(=O)N[C@@H](CCC(=O)O)C(=O)O)cc3)c2c(=O)[nH]1 [Pemtrexed]	–	–	38% (4/9)	–	–
COc1ncc(-c2ccc3nccc(-c4ccnnc4)c3c2)cc1NS(=O)(=O)c1ccc(F)cc1F [PI3k/mTOR inhibitor, 2,4-difluoro-N-{2-(methyloxy)-5-[4-(4-pyridazinyl)-6-quinolinyl]-3-pyridinyl}benzenesulfonamide]	6% (1/16)	–	69% (9/13)	little apoptosis	potently inhibited cell growth
dihydroxy-12-[(2R)-1-[(1S,3R,4R)-4-(2-hydroxyethoxy)-3-methoxycyclohexyl]propan-2-yl]-19,30-dimethoxy-15,17,21,23,29,35-hexamethyl-11,36-dioxa-4-azatricyclo[30.3.1.0^4.9]hexatriaconta-16,24,26,28-tetraene-2,3,10,14,20-pentone [Everolimus]	0% (0/24)	little or no activity	8% (2/24)	–	–
